Data reported in PMC6472337, “L amino acid transporter structure and molecular bases for the asymmetry of substrate interaction” (Nature Communications, 2019).
“And” between values parts separate entries of the source, which are not always exact repeats. Equal entries are not always repeated. Where two headings read alike, the source gives them in different places.

Legend:
BasC wild-type = assay: [3H]L-alanine transport (influx, efflux, exchange) in BasC proteoliposomes; type: biochemical, Carnobacterium sp AT7; conditions: for V: 4 mM L-alanine inside PLs, without Nb74
Protocol: (§1) BasC-GFP protein was reconstituted in E. coli polar lipids (Sigma-Aldrich, Madrid, Spain), as previously described. Lipids were dried under N2 and suspended in reconstitution buffer (20 mM Tris-Base, 150 mM NaCl, pH 7.4). The suspension was sonicated to clarity and purified BasC protein was added to reach the desired protein to lipid ratio of 1:100 (w:w). To destabilize the liposomes, 1.25% ß-D-octylglucoside was added and the mixture was incubated on ice with occasional agitation for 5 min. DDM and ß-D-octylglucoside were removed by dialysis for 40 h at 4 °C against 100 volumes of dialysis buffer. Proteoliposome (PL) suspensions were frozen in liquid N2 and stored at −80 °C until use.
(§2) For uptake experiments, the desired intraliposomal amino acid concentration was added to the PL suspension, which was then subjected to three freeze/thaw cycles. The extraliposomal amino acid content was then removed by ultracentrifugation (100,000 × g for 1 h at 4 °C) and PLs were resuspended to one-third of the initial volume with reconstitution buffer. Amino acid uptake assays were initiated after mixing 10 μl of cold PLs with 180 μl of transport buffer (20 mM Tris-Base, 150 mM NaCl, pH 7.4 plus 0.5–1 µCi/180 µl of radiolabeled L-amino acid (Perkin Elmer, Waltham, MA)) supplemented with the unlabeled amino acid to the desired concentration. This mixture was then incubated at room temperature for the indicated periods. […] Filters were then washed twice with 2 ml of stop buffer and dried, and the trapped radioactivity was counted. Transport measured in PLs containing no amino acid was subtracted from each data point to calculate the net exchange. […] BasC protein in PLs was determined by Coomassie blue staining in SDS-PAGE gels compared with known amounts of BasC in DDM micelles, determined by BCA assay (Pierce, Rockford, IL) and loaded in the same gel.

BasC Y236F mutant = assay: [3H]L-alanine transport in BasC Y236F proteoliposomes; type: biochemical, Carnobacterium sp AT7
Protocol: (§3) BasC was overexpressed as a C-terminal fusion with GFP in E. coli BL21 Star (DE3) cells grown in LB media. Single point mutations (Supplementary Table 2) were introduced using the QuikChange site-directed mutagenesis kit (Stratagene, San Diego, CA). All mutations were verified by sequencing. Expression was induced with 0.1 mM isopropyl-ß-D-thiogalactopyranoside at 37 °C for 22 h. Cells were harvested at 5000 × g for 15 min at 4 °C and stored at −80 °C until use. Cell pellets were thawed and resuspended in 20 mM Tris-Base, 150 mM NaCl, pH 7.4. Cells were pelleted again at 5000 × g for 15 min at 4 °C, resuspended in lysis buffer (20 mM Tris-Base, 350 mM NaCl, pH 7.4, 1 mM pefabloc and complete mini protease inhibitor cocktail) (Roche, Basel Switzerland) and then broken using a Cell Disruptor (four cycles at 20,000 psi; Constant Systems Ltd., Daventry, UK). Cell debris was removed by centrifugation (15,000 × g for 1 h at 4 °C), and the supernatant was subjected to ultracentrifugation (200,000 × g for 2 h at 4 °C). The membrane pellet was resuspended in 20 mM Tris-Base, 150 mM NaCl, pH 7.4 and 10% glycerol at a protein concentration of 8–12 mg ml^−1, and then frozen in liquid nitrogen and stored at −80 °C until use.
as §1, §2

BasC K154A mutant = assay: [3H]L-alanine transport in BasC K154A proteoliposomes; type: biochemical, Carnobacterium sp AT7; parameters: V/[L-Ala]: unit not given here; conditions: for V/[L-Ala]: Eadie-Hofstee, n=1-3 and mean
Protocol: as §3, §1, §2

BasC S282A mutant = assay: [3H]L-alanine transport in BasC S282A proteoliposomes; type: biochemical, Carnobacterium sp AT7; conditions: BasC S282A in PLs, WT = 100, n=1-3 and mean
Protocol: BasC was overexpressed as a C-terminal fusion with GFP in E. coli BL21 Star (DE3) cells grown in LB media. Single point mutations (Supplementary Table 2) were introduced using the QuikChange site-directed mutagenesis kit (Stratagene, San Diego, CA). All mutations were verified by sequencing. Expression was induced with 0.1 mM isopropyl-ß-D-thiogalactopyranoside at 37 °C for 22 h. Cells were harvested at 5000 × g for 15 min at 4 °C and stored at −80 °C until use. Cell pellets were thawed and resuspended in 20 mM Tris-Base, 150 mM NaCl, pH 7.4. […]
For uptake experiments, the desired intraliposomal amino acid concentration was added to the PL suspension, which was then subjected to three freeze/thaw cycles. […] Filters were then washed twice with 2 ml of stop buffer and dried, and the trapped radioactivity was counted. Transport measured in PLs containing no amino acid was subtracted from each data point to calculate the net exchange. […] BasC protein in PLs was determined by Coomassie blue staining in SDS-PAGE gels compared with known amounts of BasC in DDM micelles, determined by BCA assay (Pierce, Rockford, IL) and loaded in the same gel.

hAsc-1 Y280F mutant = molecular target: T1, hAsc-1 Y280F mutant (Homo sapiens, UniProt Q9NS82, Y280F); assay: [3H]L-alanine uptake in HeLa cells, hAsc-1 Y280F; type: cell-based; conditions: WT = 100, n=1-3 and mean
T1 construct: expressed in transfected cells; host or cells: HeLa
T1 sequence (Q9NS82 1-523 Y280F): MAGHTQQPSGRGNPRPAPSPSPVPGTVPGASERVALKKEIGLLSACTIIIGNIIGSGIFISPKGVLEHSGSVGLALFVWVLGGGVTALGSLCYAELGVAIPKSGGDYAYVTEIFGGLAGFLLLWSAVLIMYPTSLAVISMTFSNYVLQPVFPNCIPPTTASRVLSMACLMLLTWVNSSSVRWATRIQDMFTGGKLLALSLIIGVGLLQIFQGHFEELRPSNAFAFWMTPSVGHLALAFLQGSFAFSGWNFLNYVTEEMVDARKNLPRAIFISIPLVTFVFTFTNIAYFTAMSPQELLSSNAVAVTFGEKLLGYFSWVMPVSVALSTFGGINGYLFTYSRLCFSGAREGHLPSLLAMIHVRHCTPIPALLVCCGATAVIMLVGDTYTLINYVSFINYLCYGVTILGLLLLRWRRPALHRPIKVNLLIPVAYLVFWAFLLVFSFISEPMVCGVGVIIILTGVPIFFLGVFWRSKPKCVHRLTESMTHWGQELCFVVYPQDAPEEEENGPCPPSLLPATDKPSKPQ
T1 sequence (P08195 1-529 partner): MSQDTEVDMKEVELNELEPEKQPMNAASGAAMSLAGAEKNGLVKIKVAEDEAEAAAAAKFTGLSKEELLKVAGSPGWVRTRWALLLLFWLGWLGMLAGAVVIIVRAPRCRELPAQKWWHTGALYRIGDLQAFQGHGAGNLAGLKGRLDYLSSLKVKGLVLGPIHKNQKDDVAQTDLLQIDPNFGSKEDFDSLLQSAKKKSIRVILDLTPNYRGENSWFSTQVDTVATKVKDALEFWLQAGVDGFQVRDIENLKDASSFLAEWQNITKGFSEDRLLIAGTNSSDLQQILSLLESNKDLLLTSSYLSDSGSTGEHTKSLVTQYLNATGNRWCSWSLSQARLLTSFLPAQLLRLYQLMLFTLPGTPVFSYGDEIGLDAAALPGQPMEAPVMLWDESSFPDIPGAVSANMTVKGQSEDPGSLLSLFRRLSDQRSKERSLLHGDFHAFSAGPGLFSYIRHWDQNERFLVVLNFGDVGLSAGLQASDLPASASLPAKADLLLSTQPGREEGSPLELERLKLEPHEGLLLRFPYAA
From the text: All mutations were verified by sequencing.

In the case of `C[C@H](N)C(=O)O` [L-alanine], the “saturation of the transporter at 4 mM intraliposomal L-alanine” value (BasC wild-type; BasC wild-type) is reported as “about 80%”, the “V/[L-Ala]” value (BasC wild-type; Eadie-Hofstee, L-alanine 800 μM, with 5 µM Nb74, n=1-3 and mean) is reported as 0.010 pmol µg prot-1 s-1µM-1 and the Km (BasC wild-type; L-alanine concentrations up to 800 µM, absence of Nb74, read-out: extracellular Km) is reported as 65 ± 12 µM. The V (BasC wild-type; external [3H]L-alanine 100 μM, n=1-3 and mean) was 5.346 pmol L-Ala μg BasC-1 s-1 and 5.124 pmol L-Ala μg BasC-1 s-1 and 4.879 pmol L-Ala μg BasC-1 s-1, the V (BasC wild-type; external [3H]L-alanine 200 μM, n=1-3 and mean) was 7.346 pmol L-Ala μg BasC-1 s-1 and 6.582 pmol L-Ala μg BasC-1 s-1 and 6.938 pmol L-Ala μg BasC-1 s-1 and the V (BasC wild-type; external [3H]L-alanine 400 μM, n=1-3 and mean) was 7.143 pmol L-Ala μg BasC-1 s-1 and 6.357 pmol L-Ala μg BasC-1 s-1 and 9.257 pmol L-Ala μg BasC-1 s-1. It also gave a Km (BasC wild-type; extracellular side, wild-type, read-out: Km (o)) of 53.7 ± 3.97 µM, a Km (BasC wild-type; full range kinetics inhibited by 5 µM Nb74, read-out: extracellular Km) of 46 ± 9 µM and a Km (BasC wild-type; intracellular side, wild-type, read-out: Km (i)) of 2220 ± 150 µM. For the same molecule, the Vmax (BasC wild-type; wild-type) was 6.37 ± 0.70 pmols L-alanine µg protein^−1 s^−1, the “10 µM [3H]L-alanine/4 mM L-alanine exchange normalized to wild-type” value (BasC Y236F mutant; BasC Y236F in PLs, WT = 100, n=1-3 and mean) was 116.03 and 123.34 and 111.98 and 142.02 and the Vmax (BasC Y236F mutant; Y236F) was 4.58 ± 0.17 pmols L-alanine µg protein^−1 s^−1. For the same molecule, the “increase of cytoplasmic apparent affinity vs. wild-type BasC” value (BasC Y236F mutant; Y236F) was ~ 4 fold, the “saturation of the transporter at 4 mM intraliposomal L-alanine” value (BasC Y236F mutant; Y236F mutant) was “fully saturated” and the increase in function (BasC Y236F mutant; Y236F vs wild-type, extracellular 10 μM [3H]L-alanine against 4 mM intraliposomal L-alanine) was “about 20%”. The Km (BasC Y236F mutant; extracellular side, Y236F, read-out: Km (o)) was 50.2 ± 3.44 µM, the Km (BasC Y236F mutant; intracellular side, Y236F, read-out: Km (i)) was 560 ± 110 µM and the Vmax (BasC K154A mutant) was 0.32 ± 0.04 pmols L-alanine µg protein^−1 s^−1. For the same molecule, the “reduction of Vmax vs. wild-type” value (BasC K154A mutant) was ~ 10 fold, the “reduction of extracellular apparent affinity vs. wild-type” value (BasC K154A mutant) was ~ 10 fold and the “V/[L-Ala]” value (BasC K154A mutant; extracellular side, L-alanine 100 μM) was 0.0007 and 0.0010 and 0.0009. The “V/[L-Ala]” value (BasC K154A mutant; extracellular side, L-alanine 500 μM) was 0.000458 and 0.000473 and 0.0005, the Km (BasC K154A mutant; extracellular side, 5 µM Nb74, read-out: Km (o)) was 474 ± 42 µM and the Km (BasC K154A mutant; intracellular side, 5 µM Nb74, read-out: Km (i)) was 2040 ± 370 µM. For the same molecule, the “10 µM [3H]L-alanine/4 mM L-alanine exchange normalized to wild-type” value (BasC S282A mutant) was 124.06 and 127.02 and 133.54, the “10 µM [3H]L-alanine/4 mM L-alanine exchange normalized to wild-type” value (BasC S282A mutant; mean) was 128.21 and the “transport of 10 µM [3H]L-alanine normalized to wild-type” value (hAsc-1 Y280F mutant) was 133.65 and 128.34 and 128.02 and 123.34.
